Assay results taken from US20130171098A1, “Cyclopropyl Fused Indolobenzazepine HCV NS5B Inhibitors” (priority 2006, published 2013).
Where two headings read alike, the source gives them in different places.

What was measured:
[1] = target: T1, HCV NS5B RdRp genotype 1b (Hepatitis C virus genotype 1b, UniProt Q9WMX2); experiment: HCV NS5B RdRp enzyme assay (standard / modified); type: biochemical
T1 construct: The protein was expressed with an 18 amino acid C-terminal truncation to enhance the solubility; made in house; host or cells: E. coli BL21(DE3), pET21a vector
Protocol: HCV NS5B RdRp Cloning, Expression, and Purification.
The cDNA encoding the NS5B protein of HCV, genotype 1b, was cloned into the pET21a expression vector. The protein was expressed with an 18 amino acid C-terminal truncation to enhance the solubility. The E. coli competent cell line BL21(DE3) was used for expression of the protein. Cultures were grown at 37° C. for ˜4 hours until the cultures reached an optical density of 2.0 at 600 nm. The cultures were cooled to 20° C. and induced with 1 mM IPTG. Fresh ampicillin was added to a final concentration of 50 μg/ml and the cells were grown overnight at 20° C.
The lysis buffer consisted of 20 mM Tris-HCl, pH 7.4, 500 mM NaCl, 0.5% triton X-100, 1 mM DTT, 1 mM EDTA, 20% glycerol, 0.5 mg/ml lysozyme, 10 mM MgCl2, 15 ug/ml deoxyribonuclease I, and Complete TM protease inhibitor tablets (Roche). After addition of the lysis buffer, frozen cell pellets were resuspended using a tissue homogenizer. To reduce the viscosity of the sample, aliquots of the lysate were sonicated on ice using a microtip attached to a Branson sonicator. The sonicated lysate was centrifuged at 100,000×g for 1 hr at 4° C. and filtered through a 0.2 μm filter unit (Corning).
The protein was purified using two sequential chromatography steps: Heparin sepharose CL-6B and polyU sepharose 4B (Pharmacia). The chromatography buffers were identical to the lysis buffer but contained no lysozyme, deoxyribonuclease I, MgCl2 or protease inhibitor and the NaCl concentration of the buffer was adjusted according to the requirements for charging the protein onto the column. Each column was eluted with a NaCl gradient which varied in length from 5-50 column volumes depending on the column type. […] The enzyme was aliquoted and stored at −80° C.
Standard HCV NS5B RdRp Enzyme Assay.
HCV RdRp genotype 1b assays were run in a final volume of 60 μl in 96 well plates (Corning 3600). The assay buffer is composed of 20 mM Hepes, pH 7.5, 2.5 mM KCl, 2.5 mM MgCl2, 1 mM DTT, 1.6 U RNAse inhibitor (Promega N2515), 0.01 mg/ml BSA (Sigma B6917), and 2% glycerol. All compounds were serially diluted (3-fold) in DMSO and diluted further in water such that the final concentration of DMSO in the assay was 2%. HCV RdRp genotype 1b enzyme was used at a final concentration of 28 nM. A polyA template was used at 6 nM, and a biotinylated oligo-dT12 primer was used at 180 nM final concentration. Template was obtained commercially (Amersham 27-4110). Biotinylated primer was prepared by Sigma Genosys. 3H-UTP was used at 0.6 μCi (0.29 μM total UTP). Reactions were initiated by the addition of enzyme, incubated at 30° C. for 60 min, and stopped by adding 25 μl of 50 mM EDTA containing SPA beads (4 μg/μl, Amersham RPNQ 0007). Plates were read on a Packard Top Count NXT after >1 hr incubation at room temperature.
Modified HCV NS5B RdRp Enzyme Assay.
A modified enzyme assay was performed essentially as described for the standard enzyme assay except for the following: The biotinylated oligo dT12 primer was precaptured on streptavidin-coated SPA beads by mixing primer and beads in assay buffer and incubating at room temperature for one hour. Unbound primer was removed after centrifugation. The primer-bound beads were resuspended in 20 mM Hepes buffer, pH 7.5 and used in the assay at final concentrations of 20 nM primer and 0.67 μg/μl beads. Order of addition in the assay: enzyme (1.75 nM) was added to diluted compound followed by the addition of a mixture of template (0.36 nM), 3H-UTP (0.6 μCi, 0.29 μM), and primer-bound beads, to initiate the reaction; concentrations given are final. Reactions were allowed to proceed for 4 hours at 30° C.
IC50 values for compounds were determined using seven different [I].

HCV replicon cells = experiment: HCV replicon FRET / luciferase assay; type: cell-based, Hepatitis C virus
Protocol: The HCV FRET screening assay was performed in 96-well cell culture plates. The FRET peptide (Anaspec, Inc.) (Taliani et al., Anal. Biochem. 1996, 240, 60-67) contains a fluorescence donor, EDANS, near one end of the peptide and an acceptor, DABCYL, near the other end. The fluorescence of the peptide is quenched by […] resonance energy transfer (RET) between the donor and the acceptor, but as the NS3 protease cleaves the peptide the products are released from RET quenching and the fluorescence of the donor becomes apparent. The assay reagent was made as follows: 5× cell Luciferase cell culture lysis reagent from Promega (#E153A) diluted to 1× with dH2O, NaCl added to 150 mM final, the FRET peptide diluted to 20 μM final from a 2 mM stock.
To prepare plates, HCV replicon cells, with or without a Renilla luciferase reporter gene, were trypsinized and plated in a 96-well plate with titrated test compounds added in columns 3 through 12; columns 1 and 2 contained a control compound (HCV control inhibitor), and the bottom row contained cells with DMSO only. The plates were then placed in a CO2 incubator at 37° C.
Subsequent to addition of the test compounds described above (FRET Assay Preparation), at various times the plate was removed and Alamar blue solution (Trek Diagnostics, #00-100) was added to measure cellular toxicity. After reading in a Cytoflour 4000 instrument (PE Biosystems), plates were rinsed with PBS and then used for FRET assay by the addition of 30 ul of the FRET peptide assay reagent described above (FRET Assay Preparation) per well. The plate was then placed into the Cytoflour 4000 instrument which had been set to 340 excite/490 emission, automatic mode for up to 20 cycles and the plate read in a kinetic mode. Typically, the signal to noise using an endpoint analysis after the reads was at least three-fold. Alternatively, after Alamar blue reading, plates were rinsed with PBS, then used for luciferase assay using the Promega Dual-Glo Luciferase Assay System or the Promega EnduRen Live Cell Substrate assay.
Compound analysis was performed by quantification of the relative HCV replicon inhibition and the relative cytotoxicity values. To calculate cytoxicity values, the average Alamar Blue fluorescence signals from the control wells were set as 100% non-toxic. The individual signals in each of the compound test wells were then divided by the average control signal and multiplied by 100% to determine […]. To calculate the HCV replicon inhibition values, an average background value was obtained from the two wells containing the highest amount of HCV control inhibitor at the end of the assay period. These numbers were similar to those obtained from naïve Huh-7 cells. The background numbers were then subtracted from the average signal obtained from the control wells and this number was used as 100% activity. The individual signals in each of the compound test wells were then divided by the averaged control values after background subtraction and multiplied by 100% to determine percent activity. […] The two numbers generated for the compound plate, percent cytoxicity and percent activity, were used to determine compounds of interest for further analysis.

[2] = HCV NS5B RdRp genotype 1b enzyme
[3] = HCV replicon cells, FRET or luciferase activity

T1 sequence (Q9WMX2 2420-2992): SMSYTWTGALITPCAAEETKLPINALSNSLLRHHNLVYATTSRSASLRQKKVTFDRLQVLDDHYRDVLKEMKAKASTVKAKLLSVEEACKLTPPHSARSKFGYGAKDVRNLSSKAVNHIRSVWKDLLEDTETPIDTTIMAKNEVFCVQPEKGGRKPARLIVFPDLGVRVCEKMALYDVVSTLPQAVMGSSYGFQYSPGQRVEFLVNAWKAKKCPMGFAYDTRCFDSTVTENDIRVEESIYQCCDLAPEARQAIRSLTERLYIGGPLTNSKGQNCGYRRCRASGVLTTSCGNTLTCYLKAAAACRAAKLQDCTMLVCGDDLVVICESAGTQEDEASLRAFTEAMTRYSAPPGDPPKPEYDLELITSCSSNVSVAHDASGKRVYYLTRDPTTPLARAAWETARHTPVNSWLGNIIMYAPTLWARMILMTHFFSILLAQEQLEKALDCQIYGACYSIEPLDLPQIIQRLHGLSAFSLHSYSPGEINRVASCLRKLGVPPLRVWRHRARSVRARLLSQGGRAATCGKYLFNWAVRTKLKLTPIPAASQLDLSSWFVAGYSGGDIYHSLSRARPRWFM

| SMILES | IC50 [1] | EC50 (HCV replicon cells; Hepatitis C virus) | IC50 [1, 2] | EC50 (HCV replicon cells; [3]) | other results |
| --- | --- | --- | --- | --- | --- |
| COc1ccc2c(c1)C1CC1(C(=O)N1C3CCC1CN(C)C3)Cn1c-2c(C2CCCCC2)c2ccc(C(=O)NS(N)(=O)=O)cc21 (stereo not shown) [drawing 38] | 1 to 500 nM | 1 to 500 nM |  |  |  |
| COc1ccc2c(c1)C1CC1(C(=O)NC1CC3CCC(C1)N3C)Cn1c-2c(C2CCCCC2)c2ccc(C(=O)NS(=O)(=O)N(C)C)cc21 (stereo not shown) [drawing 39] | 1 to 500 nM | 1 to 500 nM |  |  |  |
| COc1ccc2c(c1)C1CC1(C(=O)N1C3CCC1CN(CC1CC1)C3)Cn1c-2c(C2CCCCC2)c2ccc(C(=O)NS(=O)(=O)N(C)C)cc21 (stereo not shown) [drawing 40] | 1 to 500 nM | 1 to 500 nM |  |  |  |
| COc1ccc2c(c1)C1CC1(C(=O)N1C3CCC1CN(c1ccccn1)C3)Cn1c-2c(C2CCCCC2)c2ccc(C(=O)NS(=O)(=O)N(C)C)cc21 (stereo not shown) [drawing 41] | 1 to 500 nM | 1 to 500 nM |  |  |  |
| COc1ccc2c(c1)C1CC1(C(=O)N1C3CCC1CN(C)C3)Cn1c-2c(C2CCCCC2)c2ccc(C(=O)NS(=O)(=O)NC3CC3)cc21 (stereo not shown) [drawing 42] | 1 to 500 nM | 1 to 500 nM |  |  |  |
| CN1CC2CCC(C1)N2C(=O)C12CC1c1cc(OCc3ccccc3)ccc1-c1c(C3CCCCC3)c3ccc(C(=O)NS(=O)(=O)N(C)C)cc3n1C2 (stereo not shown) [drawing 43] | 1 to 500 nM | 1 to 500 nM |  |  |  |
| CN1CC2CCC(C1)N2C(=O)C12CC1c1cc(O)ccc1-c1c(C3CCCCC3)c3ccc(C(=O)NS(=O)(=O)N(C)C)cc3n1C2 (stereo not shown) [drawing 44] | 1 to 500 nM | 1 to 500 nM |  |  |  |
| COc1ccc2c(c1)C1CC1(C(=O)N1C3CCC1CN(C)C3)Cn1c-2c(C2CCCCC2)c2ccc(C(=O)NS(=O)(=O)N(C)C)cc21 (stereo not shown) [drawing 46] |  |  |  |  | IC50 ([1]; HCV NS5B RdRp genotype 1b enzyme, read-out: IC50): 1 to 500 nM; EC50 (HCV replicon cells; Hepatitis C virus, HCV replicon cells, FRET or luciferase activity, read-out: EC50): 1 to 500 nM |
| CNS(=O)(=O)NC(=O)c1ccc2c(C3CCCCC3)c3n(c2c1)CC1(C(=O)N2C4CCC2CN(C)C4)CC1c1cc(OC)ccc1-3 (stereo not shown) [drawing 47] |  |  | 1 to 500 nM | 1 to 500 nM |  |
| CNS(=O)(=O)NC(=O)c1ccc2c(C3CCCCC3)c3n(c2c1)CC1(C(=O)N2C4CCC2CN(C)C4)CC1c1cc(OC)ccc1-3 (stereo not shown) [drawing 48] |  |  | 1 to 500 nM | 1 to 500 nM |  |
| CNS(=O)(=O)NC(=O)c1ccc2c(C3CCCCC3)c3n(c2c1)CC1(C(=O)N2C4CCC2CN(C)C4)CC1c1cc(OC)ccc1-3 (stereo not shown) [drawing 50] |  |  | 1 to 500 nM | 1 to 500 nM |  |
| COc1ccc2c(c1)C1CC1(C(=O)N1C3CCC1CN(C)C3)Cn1c-2c(C2CCCCC2)c2ccc(C(=O)NS(=O)(=O)N3CCC3)cc21 (stereo not shown) [drawing 51] |  |  | 1 to 500 nM | 1 to 500 nM |  |
| COc1ccc2c(c1)C1CC1(C(=O)N1C3CCC1CN(C)C3)Cn1c-2c(C2CCCCC2)c2ccc(C(=O)NS(=O)(=O)N3CCOCC3)cc21 (stereo not shown) [drawing 53] |  |  | 1 to 500 nM | 1 to 500 nM |  |
| COc1ccc2c(c1)C1CC1(C(=O)N1C3CCC1CN(C)C3)Cn1c-2c(C2CCCCC2)c2ccc(C(=O)NS(=O)(=O)N3CCN(C)CC3)cc21 (stereo not shown) [drawing 54] |  |  | 1 to 500 nM | 1 to 500 nM |  |
| CNS(=O)(=O)NC(=O)c1ccc2c(C3CCCCC3)c3n(c2c1)CC1(C(=O)N2[C@@H]4CC[C@H]2CN(C)C4)CC1c1cc(OC)ccc1-3 (stereo partly shown) [drawing 55] | 1 to 500 nM | 1 to 500 nM |  |  |  |
| CNS(=O)(=O)NC(=O)c1ccc2c(C3CCCCC3)c3n(c2c1)CC1(C(=O)N2[C@@H]4CC[C@H]2CN(C)C4)CC1c1cc(OC)ccc1-3 (stereo partly shown) [drawing 56] |  |  | 1 to 500 nM | 1 to 500 nM |  |
| COc1ccc2c(c1)C1CC1(C(=O)N1C3CCC1CN(Cc1ccccc1)C3)Cn1c-2c(C2CCCCC2)c2ccc(C(=O)NS(=O)(=O)N(C)C)cc21 (stereo not shown) [drawing 58] |  |  | 1 to 500 nM | 1 to 500 nM |  |
| COc1ccc2c(c1)C1CC1(C(=O)N1C3CCC1CNC3)Cn1c-2c(C2CCCCC2)c2ccc(C(=O)NS(=O)(=O)N(C)C)cc21 (stereo not shown) [drawing 59] |  |  | 1 to 500 nM | 1 to 500 nM |  |
| COc1ccc2c(c1)C1CC1(C(=O)N1C3CCC1CN(C(C)=O)C3)Cn1c-2c(C2CCCCC2)c2ccc(C(=O)NS(=O)(=O)N(C)C)cc21 (stereo not shown) [drawing 60] |  |  | 1 to 500 nM | 1 to 500 nM |  |
| CCN1CC2CCC(C1)N2C(=O)C12CC1c1cc(OC)ccc1-c1c(C3CCCCC3)c3ccc(C(=O)NS(=O)(=O)N(C)C)cc3n1C2 (stereo not shown) [drawing 61] |  |  | 1 to 500 nM | 1 to 500 nM |  |
| COc1ccc2c(c1)C1CC1(C(=O)N1C3CCC1CN(C(C)C)C3)Cn1c-2c(C2CCCCC2)c2ccc(C(=O)NS(=O)(=O)N(C)C)cc21 (stereo not shown) [drawing 62] |  |  | 1 to 500 nM | 1 to 500 nM |  |
| COc1ccc2c(c1)C1CC1(C(=O)N1C3CCC1CN(C)C3)Cn1c-2c(C2CCCCC2)c2ccc(C(=O)NS(N)(=O)=O)cc21 (stereo not shown) [drawing 63] |  |  | 1 to 500 nM | 1 to 500 nM |  |
| COc1ccc2c(c1)C1CC1(C(=O)NC1CC3CCC(C1)N3C)Cn1c-2c(C2CCCCC2)c2ccc(C(=O)NS(=O)(=O)N(C)C)cc21 (stereo not shown) [drawing 64] |  |  | 1 to 500 nM | 1 to 500 nM |  |
| COc1ccc2c(c1)C1CC1(C(=O)N1C3CCC1CN(CC1CC1)C3)Cn1c-2c(C2CCCCC2)c2ccc(C(=O)NS(=O)(=O)N(C)C)cc21 (stereo not shown) [drawing 65] |  |  | 1 to 500 nM | 1 to 500 nM |  |
| COc1ccc2c(c1)C1CC1(C(=O)N1C3CCC1CN(c1ccccn1)C3)Cn1c-2c(C2CCCCC2)c2ccc(C(=O)NS(=O)(=O)N(C)C)cc21 (stereo not shown) [drawing 67] |  |  | 1 to 500 nM | 1 to 500 nM |  |
| COc1ccc2c(c1)C1CC1(C(=O)N1C3CCC1CN(C)C3)Cn1c-2c(C2CCCCC2)c2ccc(C(=O)NS(=O)(=O)NC3CC3)cc21 (stereo not shown) [drawing 68] |  |  | 1 to 500 nM | 1 to 500 nM |  |
